Here are results for 34 compounds from US10399987B2, “TGF beta receptor antagonists” (BRISTOL-MYERS SQUIBB COMPANY, priority 2015, dated 2019).

As a reminder, the IC50 is the concentration that gives 50% inhibition.

Structures are written as SMILES.

This experiment addresses HIS-TGFβR1 T204D (Homo sapiens (Human), UniProt P36897, T204D). Nature of the experiment: TGFβR1 HIS T204D HTRF assay (labeled small molecule probe, anti-HIS detection antibody). It is filed as binding. Particulars: 1 nM HIS-TGFβR1 T204D, probe at Kd, 1 hour at room temperature, eleven concentrations. On the technique in general: In TR-FRET formats the signal depends on donor and acceptor labels being close together.

HIS-TGFβR1 T204D, sequence (P36897 34-503 T204D): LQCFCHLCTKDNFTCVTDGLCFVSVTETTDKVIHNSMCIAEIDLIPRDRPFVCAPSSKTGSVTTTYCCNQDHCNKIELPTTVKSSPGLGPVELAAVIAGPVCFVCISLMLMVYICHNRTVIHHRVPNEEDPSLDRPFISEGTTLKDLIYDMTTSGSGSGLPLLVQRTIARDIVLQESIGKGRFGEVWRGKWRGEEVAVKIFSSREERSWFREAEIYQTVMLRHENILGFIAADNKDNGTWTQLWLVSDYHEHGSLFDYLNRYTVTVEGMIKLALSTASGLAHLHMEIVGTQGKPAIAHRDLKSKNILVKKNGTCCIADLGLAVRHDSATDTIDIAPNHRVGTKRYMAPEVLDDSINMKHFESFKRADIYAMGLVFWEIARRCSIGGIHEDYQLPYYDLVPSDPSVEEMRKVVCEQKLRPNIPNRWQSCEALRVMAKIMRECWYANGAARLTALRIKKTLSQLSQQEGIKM

Take `CC(C)(O)CNCc1c[nH]c2nc(-c3cccc(C(F)F)n3)nc(Nc3ccncc3F)c12` [Example 35, 1-(((2-(6-(difluoromethyl)pyridin-2-yl)-4-((3-fluoropyridin-4-yl)amino)-7H-pyrrolo[2,3-d]pyrimidin-5-yl)methyl)amino)-2-methylpropan-2-ol]: half-maximal inhibition (IC50) required 1.4 nM. This counts as single-digit nanomolar.

With `O=C(CN1CCCC1)Nc1cc(Nc2nc(-c3cccc(C(F)(F)F)n3)nc3[nH]ccc23)ccn1` [Example 4, 2-(pyrrolidin-1-yl)-N-(4-((2-(6-(trifluoromethyl)pyridin-2-yl)-7H-pyrrolo[2,3-d]pyrimidin-4-yl)amino)pyridin-2-yl)acetamide], the IC50 stood at 0.42 nM.

As for `CS(=O)(=O)Nc1cc(Nc2nc(-c3cccc(C(F)(F)F)n3)nc3[nH]ccc23)ccn1` [Example 28, N-(4-((2-(6-(trifluoromethyl)pyridin-2-yl)-7H-pyrrolo[2,3-d]pyrimidin-4-yl)amino)pyridin-2-yl)methanesulfonamide], inhibition was half-maximal at 970 nM (IC50).

The compound `Fc1cnccc1Nc1nc(-c2cccc(C(F)F)n2)nc2[nH]ccc12` [Example 2, 2-(6-(difluoromethyl)pyridin-2-yl)-N-(3-fluoropyridin-4-yl)-7H-pyrrolo[2,3-d]pyrimidin-4-amine] displayed an IC50 of 0.25 nM. Against the preceding compound, the IC50 is about 3900-fold lower.

Compound `COC(=O)Nc1cc(Nc2nc(-c3cccc(C(F)(F)F)n3)nc3[nH]ccc23)ccn1` [Example 30, methyl (4-((2-(6-(trifluoromethyl)pyridin-2-yl)-7H-pyrrolo[2,3-d]pyrimidin-4-yl)amino)pyridin-2-yl)carbamate] displayed an IC50 of 2.5 nM.

As to `COc1cnccc1Nc1nc(-c2ccc(F)c(C)n2)nc2[nH]ccc12` [Example 46, N-[2-(5-fluoro-6-methylpyridin-2-yl)-7H-pyrrolo[2,3-d]pyrimidin-4-yl]-3-methoxypyridin-4-amine], 0.79 nM corresponded to half-maximal inhibition (IC50).

Compound `CC(=O)Nc1cc(Nc2nc(-c3ccc(F)c(C)n3)nc3[nH]ccc23)ccn1` [Example 29, N-(4-((2-(5-fluoro-6-methylpyridin-2-yl)-7H-pyrrolo[2,3-d]pyrimidin-4-yl)amino)pyridin-2-yl)acetamide] registered an IC50 of 0.77 nM. This IC50 and that of the compound before are within 1.5-fold of each other.

On to `FC(F)(F)c1cccc(-c2nc(Nc3ccncc3C(F)(F)F)c3cc[nH]c3n2)n1` [Example 39, 3-(trifluoromethyl)-N-{2-[6-(trifluoromethyl)pyridin-2-yl]-7H-pyrrolo[2,3-d]pyrimidin-4-yl}pyridin-4-amine], for which the half-inhibitory concentration (IC50) came out at 0.64 nM. This IC50 and that of the compound before are within 1.5-fold of each other.

With `CN(c1ccncc1)c1nc(-c2cccc(NS(C)(=O)=O)n2)nc2[nH]ccc12` [Example 48, N-(6-{4-[methyl(pyridin-4-yl)amino]-7H-pyrrolo[2,3-d]pyrimidin-2-yl}pyridin-2-yl)methanesulfonamide], the IC50 turned out to be 4.3 nM.

Take `Cc1cnccc1Nc1nc(-c2cccc(C(F)(F)F)n2)nc2[nH]ccc12` [Example 37, 3-methyl-N-{2-[6-(trifluoromethyl)pyridin-2-yl]-7H-pyrrolo[2,3-d]pyrimidin-4-yl}pyridin-4-amine]: the IC50 was found to be 0.87 nM.

`CCC(=O)Nc1cc(Nc2nc(-c3cccc(C(F)(F)F)n3)nc3[nH]ccc23)ccn1` [Example 24, N-(4-((2-(6-(trifluoromethyl)pyridin-2-yl)-7H-pyrrolo[2,3-d]pyrimidin-4-yl)amino)pyridin-2-yl)propionamide] displayed an IC50 of 0.74 nM. The IC50 values of the last two compounds are within 1.5-fold of each other.

For the compound `CC(C)CC(=O)Nc1cc(Nc2nc(-c3cccc(C(F)(F)F)n3)nc3[nH]ccc23)ccn1` [Example 27, 3-methyl-N-(4-((2-(6-(trifluoromethyl)pyridin-2-yl)-7H-pyrrolo[2,3-d]pyrimidin-4-yl)amino)pyridin-2-yl)butanamide], half-maximal inhibition (IC50) required 0.85 nM.

The compound `CC(=O)Nc1cc(Nc2nc(-c3cccc(C(F)F)n3)nc3[nH]ccc23)c(F)cn1` [Example 16, N-(4-((2-(6-(difluoromethyl)pyridin-2-yl)-7H-pyrrolo[2,3-d]pyrimidin-4-yl)amino)-5-fluoropyridin-2-yl)acetamide] gave a half-inhibitory concentration (IC50) of 0.71 nM.

As to `CC(=O)Nc1nccc(Nc2nc(-c3cccc(C(F)(F)F)n3)nc3[nH]ccc23)c1F` [Example 36, N-[3-fluoro-4-({2-[6-(trifluoromethyl)pyridin-2-yl]-7H-pyrrolo[2,3-d]pyrimidin-4-yl}amino)pyridin-2-yl]acetamide], the midpoint of inhibition, the IC50, lay at 1.7 nM.

`FC(F)(F)c1cccc(-c2nc(Nc3ccncc3Cl)c3cc[nH]c3n2)n1` [Example 40, 3-chloro-N-{2-[6-(trifluoromethyl)pyridin-2-yl]-7H-pyrrolo[2,3-d]pyrimidin-4-yl}pyridin-4-amine] showed an IC50 of 0.6 nM.

As to `CC(=O)Nc1cc(Nc2nc(-c3cccc(C)n3)nc3[nH]ccc23)ccn1` [Example 22, N-(4-((2-(6-methylpyridin-2-yl)-7H-pyrrolo[2,3-d]pyrimidin-4-yl)amino)pyridin-2-yl)acetamide], the IC50 came out at 1 nM.

Turning to `FC(F)c1cccc(-c2nc(-n3ccc4cnccc43)c3cc[nH]c3n2)n1` [Example 12, 2-(6-(difluoromethyl)pyridin-2-yl)-4-(1H-pyrrolo[3,2-c]pyridin-1-yl)-7H-pyrrolo[2,3-d]pyrimidine], the half-maximal inhibitory concentration (IC50) worked out at 0.64 nM.

Take `FC(F)c1cccc(-c2nc(Nc3ccnc(Cl)n3)c3cc[nH]c3n2)n1` [Example 15, N-(2-chloropyrimidin-4-yl)-2-(6-(difluoromethyl)pyridin-2-yl)-7H-pyrrolo[2,3-d]pyrimidin-4-amine]: 160 nM corresponded to half-maximal inhibition (IC50). Against the preceding compound, the IC50 is about 250-fold higher.

`O=C(Nc1cc(Nc2nc(-c3cccc(C(F)(F)F)n3)nc3[nH]ccc23)ccn1)C1CC1` [Example 41, N-[4-({2-[6-(trifluoromethyl)pyridin-2-yl]-7H-pyrrolo[2,3-d]pyrimidin-4-yl}amino)pyridin-2-yl]cyclopropanecarboxamide] yielded a 50% inhibitory concentration (IC50) of 0.87 nM.

For the compound `Cc1c[nH]c2nc(-c3cccc(C(F)F)n3)nc(Nc3ccncc3F)c12` [Example 6, 2-(6-(difluoromethyl)pyridin-2-yl)-N-(3-fluoropyridin-4-yl)-5-methyl-7H-pyrrolo[2,3-d]pyrimidin-4-amine], the IC50 was found to be 0.76 nM.

Take `CN1CCN(CC(=O)Nc2cc(Nc3nc(-c4cccc(C(F)(F)F)n4)nc4[nH]ccc34)ccn2)CC1` [Example 5, 2-(4-methylpiperazin-1-yl)-N-(4-((2-(6-(trifluoromethyl)pyridin-2-yl)-7H-pyrrolo[2,3-d]pyrimidin-4-yl)amino)pyridin-2-yl)acetamide]: the IC50 worked out at 0.53 nM.

The compound `Fc1ccc(-c2nc(Nc3ccncc3F)c3cc[nH]c3n2)nc1` [Example 14, 2-(5-fluoropyridin-2-yl)-N-(3-fluoropyridin-4-yl)-7H-pyrrolo[2,3-d]pyrimidin-4-amine] gave an IC50 of 0.91 nM.

With `Cc1cccc(-c2nc(Nc3ccncc3F)c3c(C)c[nH]c3n2)n1` [Example 33, N-(3-fluoropyridin-4-yl)-5-methyl-2-(6-methylpyridin-2-yl)-7H-pyrrolo[2,3-d]pyrimidin-4-amine], the half-maximal inhibitory concentration (IC50) is 0.25 nM.

Take `Cc1nc(-c2nc(Nc3cc(Cl)ncc3F)c3cc[nH]c3n2)ccc1F` [Example 13, N-(2-chloro-5-fluoropyridin-4-yl)-2-(5-fluoro-6-methylpyridin-2-yl)-7H-pyrrolo[2,3-d]pyrimidin-4-amine]: the 50% inhibitory concentration (IC50) amounted to 4 nM.

Compound `Fc1cnccc1Nc1nc(-c2ccccn2)nc2[nH]ccc12` [Example 8, N-(3-fluoropyridin-4-yl)-2-(pyridin-2-yl)-7H-pyrrolo[2,3-d]pyrimidin-4-amine] registered a half-maximal inhibitory concentration (IC50) of 0.26 nM.

Turning to `CS(=O)(=O)Nc1cccc(-c2nc(Nc3ccncc3Cl)c3cc[nH]c3n2)n1` [Example 49, N-(6-{4-[(3-chloropyridin-4-yl)amino]-7H-pyrrolo[2,3-d]pyrimidin-2-yl}pyridin-2-yl)methanesulfonamide], the IC50 was 2.2 nM.

Turning to `CC(C)(C)CC(=O)Nc1cc(Nc2nc(-c3cccc(C(F)(F)F)n3)nc3[nH]ccc23)ccn1` [Example 26, 3,3-dimethyl-N-(4-((2-(6-(trifluoromethyl)pyridin-2-yl)-7H-pyrrolo[2,3-d]pyrimidin-4-yl)amino)pyridin-2-yl)butanamide], 2.7 nM corresponded to half-maximal inhibition (IC50).

`COc1cnccc1Nc1nc(-c2cccc(C(F)(F)F)n2)nc2[nH]ccc12` [Example 42, 3-methoxy-N-{2-[6-(trifluoromethyl)pyridin-2-yl]-7H-pyrrolo[2,3-d]pyrimidin-4-yl}pyridin-4-amine] gave a half-inhibitory concentration (IC50) of 1.7 nM. This IC50 lies about 1.6-fold lower than the previous one.

For `Cc1cnccc1Nc1nc(-c2ccc(F)c(C)n2)nc2[nH]ccc12` [Example 45, N-[2-(5-fluoro-6-methylpyridin-2-yl)-7H-pyrrolo[2,3-d]pyrimidin-4-yl]-3-methylpyridin-4-amine], the 50% inhibitory concentration (IC50) came out at 1 nM.

As for `CN1CCN(Cc2c[nH]c3nc(-c4cccc(C(F)F)n4)nc(Nc4ccncc4F)c23)CC1` [Example 7, 2-(6-(difluoromethyl)pyridin-2-yl)-N-(3-fluoropyridin-4-yl)-5-((4-methylpiperazin-1-yl)methyl)-7H-pyrrolo[2,3-d]pyrimidin-4-amine], the midpoint of inhibition, the IC50, lay at 3.7 nM.

`CC(=O)Nc1cc(Nc2nc(-c3cccc(C(F)F)n3)nc3[nH]cc(CNCC(C)(C)O)c23)c(F)cn1` [Example 44, N-[4-({2-[6-(difluoromethyl)pyridin-2-yl]-5-{[(2-hydroxy-2-methylpropyl)amino]methyl}-7H-pyrrolo[2,3-d]pyrimidin-4-yl}amino)-5-fluoropyridin-2-yl]acetamide] registered an IC50 of 2.6 nM.

In the case of `CC(=O)Nc1cc(Nc2nc(-c3ccc(C(F)(F)F)cn3)nc3[nH]ccc23)ccn1` [Example 23, N-(4-((2-(5-(trifluoromethyl)pyridin-2-yl)-7H-pyrrolo[2,3-d]pyrimidin-4-yl)amino)pyridin-2-yl)acetamide], the IC50 was found to be 4.7 nM.

As for `c1ccc(-c2nc(-n3ccc4cnccc43)c3cc[nH]c3n2)nc1` [Example 9, 2-(pyridin-2-yl)-4-(1H-pyrrolo[3,2-c]pyridin-1-yl)-7H-pyrrolo[2,3-d]pyrimidine], the midpoint of inhibition, the IC50, lay at 1.2 nM.

In turn, `CC(=O)Nc1cc(Nc2nc(-c3ccccn3)nc3[nH]ccc23)ccn1` [Example 21, N-(4-((2-(pyridin-2-yl)-7H-pyrrolo[2,3-d]pyrimidin-4-yl)amino)pyridin-2-yl)acetamide] came in with an IC50 of 0.9 nM.
